Literature values in US9555029B2 (HIKMA PHARMACEUTICALS, priority 2013, dated 2017).
Read-outs that look alike come from different tables or passages of the source.

How the values were obtained:
[1] = cited from earlier work; for AUCT / Cmax: geometric mean
[2] = cited from earlier work; for AUCT / Cmax: geometric mean; remark: listed apart in the source
[3] = cited from earlier work; for Kel / T1/2el: arithmetic mean
[4] = cited from earlier work; for Kel / T1/2el: arithmetic mean; for AUCT / Cmax: geometric mean
[5] = cited from earlier work; for Kel / T1/2el: arithmetic mean; for AUCT / Cmax: geometric mean; remark: listed apart in the source
[6] = cited from earlier work
[7] = cited from earlier work; remark: listed apart in the source
[8] = Treatment-1: colchicine 0.6 mg alone (day 1, fasted), clarithromycin study
[9] = Treatment-2: colchicine 0.6 mg + clarithromycin 250 mg twice daily (days 22-29), arithmetic mean
[10] = Treatment-2: colchicine 0.6 mg + clarithromycin 250 mg twice daily (days 22-29)
[11] = Treatment-1: colchicine 0.6 mg alone (day 1, fasted), ritonavir study, arithmetic mean
[12] = Treatment-1: colchicine 0.6 mg alone (day 1, fasted), ritonavir study
[13] = Treatment-2: colchicine 0.6 mg (day 19) + ritonavir 100 mg twice daily (days 15-19)
[14] = Treatment-1: colchicine 0.6 mg alone (day 1, fasted), verapamil ER study
[15] = Treatment-1: colchicine 0.6 mg alone (day 1, fasted), verapamil ER study, geometric mean
[16] = Treatment-2: colchicine 0.6 mg (day 19) + verapamil ER 240 mg once daily (days 15-19)
[17] = Treatment-1: colchicine 0.6 mg alone (day 1, fasted), diltiazem ER study
[18] = Treatment-2: colchicine 0.6 mg (day 21) + diltiazem ER 240 mg once daily (days 15-21)
[19] = Treatment-1: colchicine 0.6 mg alone (day 1, fasted), azithromycin study
[20] = Treatment-2: colchicine 0.6 mg (day 19) + azithromycin 500 mg day 15, 250 mg once daily days 16-19
[21] = colchicine coadministered with azithromycin
[22] = colchicine coadministered with clarithromycin
[23] = colchicine coadministered with cyclosporine
[24] = colchicine coadministered with diltiazem ER
[25] = colchicine coadministered with ketoconazole
[26] = colchicine coadministered with ritonavir
[27] = colchicine coadministered with verapamil ER

COc1cc2c(c(OC)c1OC)-c1ccc(OC)c(=O)cc1[C@@H](NC(C)=O)CC2 [Colchicine, (S)N-(5,6,7,9-tetrahydro-1,2,3,10-tetramethoxy-9-oxobenzo[alpha]heptalen-7-yl)acetamide]
AUCT [1, 8]: 12,370 pg · h/mL | Cmax [1, 8]: 2,840 pg/mL | Kel [1, 9]: 0.0296 h⁻¹ | T1/2el [1, 9]: 30.31 h | CLTOT/F [1, 10]: 12.0 L/h | AUCT [1, 10]: 41,950 pg · h/mL | Cmax [1, 10]: 8,440 pg/mL | Kel [2, 11]: 0.1666 h⁻¹ | T1/2el [2, 11]: 5.15 h | CLTOT/F [2, 12]: 67.93 L/h | AUCT [2, 12]: 8,410 pg · h/mL | Cmax [2, 12]: 1,870 pg/mL | T1/2el ([2]; Treatment-2: colchicine 0.6 mg (day 19) + ritonavir 100 mg twice daily (days 15-19), arithmetic mean): 17.41 h | CLTOT/F [2, 13]: 18.59 L/h | AUCT [2, 13]: 29,050 pg · h/mL | Cmax [2, 13]: 4,990 pg/mL | Kel [3, 14]: 0.1409 h⁻¹ | T1/2el [3, 14]: 4.3 h | CLTOT/F [3, 14]: 43.93 L/h | AUCT [3, 15]: 13,090 pg · h/mL | Cmax [3, 15]: 2,970 pg/mL | Kel [3, 16]: 0.0480 h⁻¹ | T1/2el [3, 16]: 17.17 h | CLTOT/F [3, 16]: 21.01 L/h | Cmax ([3]; Treatment-2: colchicine 0.6 mg (day 19) + verapamil ER 240 mg once daily (days 15-19), geometric mean): 3,850 pg/mL | Kel [4, 17]: 0.1589 h⁻¹ | T1/2el [4, 17]: 5.51 h | CLTOT/F [4, 17]: 58.88 L/h | AUCT [4, 17]: 10,040 pg · h/mL | Cmax [4, 17]: 2,170 pg/mL | Kel [4, 18]: 0.0838 h⁻¹ | T1/2el [4, 18]: 12.5 h | CLTOT/F [4, 18]: 34.7 L/h | AUCT [4, 18]: 12,730 pg · h/mL | Cmax [4, 18]: 2,800 pg/mL | Kel [5, 19]: 0.147 h⁻¹ | T1/2el [5, 19]: 6.07 h | CLTOT/F [5, 19]: 50.24 L/h | AUCT [5, 19]: 11,980 pg · h/mL | Cmax [5, 19]: 2,740 pg/mL | Kel [5, 20]: 0.1426 h⁻¹ | T1/2el [5, 20]: 6.71 h | CLTOT/F [5, 20]: 35.01 L/h | AUCT [5, 20]: 17,160 pg · h/mL | Cmax [5, 20]: 3,050 pg/mL | Colchicine passing unchanged in the urine ([6]; in vivo): up to 20% | Time to peak concentrations in the blood ([6]; oral, patients with normal organ function): ≤ 2 h | Number of 24 subjects with adverse events overall [7, 21]: 11 | Percent of 24 subjects with adverse events overall [7, 21]: (45.8) % | Total number of adverse events [7, 21]: 27 | Number of 24 subjects with adverse events overall [7, 22]: 14 | Percent of 24 subjects with adverse events overall [7, 22]: (58.3) % | Total number of adverse events [7, 22]: 26 | Number of 24 subjects with adverse events overall [7, 23]: 6 | Percent of 24 subjects with adverse events overall [7, 23]: (25.0%) | Total number of adverse events [7, 23]: 5 | Number of 24 subjects with adverse events overall [7, 24]: 14 | Percent of 24 subjects with adverse events overall [7, 24]: (58.3) % | Total number of adverse events [7, 24]: 21 | Number of 24 subjects with adverse events overall [7, 25]: 10 | Percent of 24 subjects with adverse events overall [7, 25]: (41.7) % | Total number of adverse events [7, 25]: 11 | Number of 24 subjects with adverse events overall [7, 26]: 5 | Percent of 24 subjects with adverse events overall [7, 26]: (20.8) % | Total number of adverse events [7, 26]: 8 | Number of 24 subjects with adverse events overall [7, 27]: 14 | Percent of 24 subjects with adverse events overall [7, 27]: (58.3) % | Total number of adverse events [7, 27]: 22
